Data reported in US11352315B2, “Compositions and methods comprising a triaryl polyamine” (Curza Global, LLC, priority 2017, dated 2022).
Values after ≈ are worked out from the molar mass of the structure shown.

What was measured:
P. aeruginosa [1] = assay: MIC analysis; format: cell-based; details: Pseudomonas aeruginosa, 24 hours
Protocol: (§1) A clinical strain of MRSA, isolated from a patient who underwent arthroscopic knee surgery and characterized by ARUP Laboratories, Salt Lake City, Utah, was used for this study in addition to Pseudomonas aeruginosa ATCC 27853 and Alcanivorax borkumensis ATCC 700651. P. aeruginosa was resuspended in BHI broth, grown overnight at 37° C. and transferred to fresh BHI with 30% glycerol for storage at −80° C. The MRSA isolate was likewise stored in BHI with 30% glycerol at −80° C. […] Before performing MIC analysis and biofilm experiments, the frozen stocks of MRSA and P. aeruginosa were streaked onto Columbia blood agar plates and grown overnight at 37° C. A. borkumensis ATCC 700651 was resuspended from a lyophilized pellet into marine broth, grown overnight at 30° C. and passaged on marine agar plates prior to experimentation.
(§2) To determine the MIC of polyamine compounds, the protocol described herein was used.
(§3) In brief, a 0.5 McFarland of each bacterial isolate was made. A 0.5 McFarland is a measure of turbidity in a liquid sample that contains approximately 1×10^^8 CFU/mL. The 0.5 McFarland standard was diluted in cation adjusted Mueller Hinton Broth (CAMHB), and 50 μL of broth were added to a well of a 96-well plate. In addition, 50 μL of CAMHB that contained a desired concentration of antimicrobial were also added to the well for a final volume of 100 μL and a final concentration of approximately 5×10^4 CFU/well (which equated to approximately 5×10^5 CFU/mL). Each well contained a desired amount of polyamine compound in order to experimentally determine the MIC. Each 96-well plate was incubated at 37° C. for 24 hours. The contents of each well were plated on tryptic soy agar (TSA). TSA plates were incubated for 37° C. for 24 hours after which the number of CFU were counted and used to calculate the CFU/mL that remained after exposure to varying concentrations of compound. This procedure was repeated n=8 times for each concentration of antimicrobial.

MRSA [2] = assay: MIC analysis; format: cell-based; details: Staphylococcus aureus, 24 hours
Protocol: as §1, §2, §3

P. aeruginosa [3] = assay: MBEC analysis, MBEC Inoculation Tray (column headed MBC); format: cell-based; details: Pseudomonas aeruginosa, 24 hours
From the text: (§4) To determine the MBEC of each polyamine compound, the MBEC Inoculation Tray by Innovotech, formerly known as the Calgary biofilm device, was used. Within this device, biofilms grow on the surface of polystyrene pegs, 96 of which are attached to a lid. These pegs are inserted into a flat bottom 96-well plate. In this instance, the MBEC of a molecule was defined as the concentration of compound (in μg/mL) required to reduce 10^5 or 10^6 CFU/peg (biofilm levels varied by isolate) to 10^2 CFU/peg in a 24-hour period.
(§5) Following the manufacturer's guidelines, biofilms were grown on the surface of each peg by first making a 0.5 McFarland of each isolate. The 0.5 McFarland was diluted 1:100 in CAMHB. Into each well of a flat bottom 96-well plate, 150 μL of broth were pipetted. The plate was shaken at 100 rpm for 24 hours (P. aeruginosa and A. baumannii) or 48 hours (MRSA). The pegs were then placed into a separate flat bottom 96-well plate for 10 seconds with 200 μL of phosphate buffered saline (PBS) in each well to remove nonadherent cells. The lid was then placed into a 96-well plate that contained varying concentrations of antimicrobial with 200 μL per well. The plate was incubated for 24 hours at 37° C. after which time 100 μL of broth were plated on TSA. TSA plates were incubated 24 hours at 37° C. and the number of CFU counted to calculate the CFU/peg. In this instance, the MBEC was defined as the concentration of antimicrobial required to reduce 10^5 or 10^6 CFU/peg to 10^2 CFU/peg in a 24 hour period.

MRSA [4] = assay: as above; format: cell-based; details: Staphylococcus aureus, 24 hours
From the text: as §4, §5

E. coli [5] = assay: as above; format: cell-based; details: Escherichia coli, 24 hours
E. coli [6] = assay: MIC analysis; format: cell-based; details: Escherichia coli, 24 hours
Protocol: as §2, §3

MRSA [7] = assay: EBEC analysis, high number biofilms on PEEK membranes; format: cell-based, Staphylococcus aureus; details: 24 hours
Protocol: (§6) To determine the efficacy of polyamine compounds against high number biofilms, biofilms were grown on the surface of polyetheretherketone (PEEK) membranes using a membrane biofilm reactor. This reactor was similar to the CDC biofilm reactor, but rather than growing biofilms on coupon surfaces, the reactor was modified to hold PEEK membranes. In short, to grow biofilms within this system, 500 mL of brain heart infusion (BHI) broth were inoculated with 1 mL of a 0.5 McFarland. The reactor was placed on a hot plate set at 34° C. and the bacteria were grown under batch conditions for 24 hours.
(§7) A solution of 10% BHI was then flowed through the reactor at a rate of 6.94 mL/min for an additional 24 hours. PEEK membranes were then removed and placed into 2 mL of CAMHB that contained a desired concentration of polyamine compound or antibiotic. The EBEC was defined as the concentration of antimicrobial required to reduce a biofilm from approximately 10^9 CFU/PEEK membrane to approximately 10^2 CFU/PEEK membrane in a 24-hour period.

A. baumannii [8] = assay: MBEC analysis, MBEC Inoculation Tray (column headed MBC); format: cell-based; details: Acinetobacter baumannii, 24 hours
From the text: as §4, §5

A. baumannii [9] = assay: MIC analysis; format: cell-based; details: Acinetobacter baumannii, 24 hours
Protocol: as §2, §3

A. baumannii [10] = assay: EBEC analysis, high number biofilms on PEEK membranes; format: cell-based, Acinetobacter baumannii; details: 24 hours
Protocol: as §6, §7

| Compound | MIC (P. aeruginosa [1]) [µg/mL] | MIC (MRSA [2]) [µg/mL] | MBC (P. aeruginosa [3]) [µg/mL] | MBC (MRSA [4]) [µg/mL] | MBC (E. coli [5]) [µg/mL] | MIC (E. coli [6]) [µg/mL] | EBEC (MRSA [7]) [µg/mL] | MBC (A. baumannii [8]) [µg/mL] | MIC (A. baumannii [9]) [µg/mL] | EBEC (A. baumannii [10]) [µg/mL] |
| --- | --- | --- | --- | --- | --- | --- | --- | --- | --- | --- |
| CC(C)CNCCCNCCCNCc1cccc(-c2ccccc2-c2cccc(CNCCCNCCCNCC(C)C)c2)c1 [CZ-1-152] | 32 (≈ 50.9 µM) | 16 (≈ 25.4 µM) | 32 (≈ 50.9 µM) | 16 (≈ 25.4 µM) | – | – | – | – | – | – |
| CC(C)CNCCCNCCCNCc1cccc(-c2ccc(-c3cccc(CNCCCNCCCNCC(C)C)c3)c(CNCCCNCCCNCC(C)C)c2)c1 [CZ-1-153, N^1,N^1′,N^1″-([1,1′:4′,1″-terphenyl]-2′,3,3″-triyltris(methylene))tris(N^3-(3-(isobutylamino)propyl)propane-1,3-diamine)] | > 64 | 16 (≈ 19.3 µM) | > 64 | 16 (≈ 19.3 µM) | – | – | – | – | – | – |
| CC(C)CNCCCNCCCNCc1ccc(-c2ccccc2-c2ccc(CNCCCNCCCNCC(C)C)cc2)cc1 [CZ-1-154, N^1,N^1′-([1,1′:2′,1″-terphenyl]-4,4″-diylbis(methylene))bis(N^3-(3-(isobutylamino)propyl)propane-1,3-diamine)] | 32 (≈ 50.9 µM) | 4 (≈ 6.36 µM) | > 32 | 4 (≈ 6.36 µM) | 16 (≈ 25.4 µM) | 16 (≈ 25.4 µM) | – | – | – | – |
| CCCCCCNCCCNCCCNCc1cccc(-c2ccccc2-c2cccc(CNCCCNCCCNCCCCCC)c2)c1 [CZ-1-155, N^1,N^1′-([1,1′:2′,1″-terphenyl]-3,3″-diylbis(methylene))bis(N^3-(3-(hexylamino)propyl)propane-1,3-diamine)] | 16 (≈ 23.4 µM) | 16 (≈ 23.4 µM) | 16 (≈ 23.4 µM) | 16 (≈ 23.4 µM) | – | – | – | – | – | – |
| CC(C)CNCCCNCCCNCc1ccc(-c2cccc(-c3ccc(CNCCCNCCCNCC(C)C)cc3)c2)cc1 [CZ-1-157, N^1,N^1′-([1,1′:3′,1″-terphenyl]-4,4″-diylbis(methylene))bis(N^3-(3-(isobutylamino)propyl)propane-1,3-diamine)] | 16 (≈ 25.4 µM) | 4 (≈ 6.36 µM) | 16 (≈ 25.4 µM) | 4 (≈ 6.36 µM) | – | – | >750 | – | – | – |
| CCCCC(CC)CNCCCNCCCNCc1ccc(-c2cccc(-c3ccc(CNCCCNCCCNCC(CC)CCCC)cc3)c2)cc1 (stereo not drawn) [CZ-1-161, N^1,N^1′-([1,1′:3′,1″-terphenyl]-4,4″-diylbis(methylene))bis(N^3-(3-((2-ethylhexyl)amino)propyl)propane-1,3-diamine)] | 16 (≈ 21.6 µM) | 1 (≈ 1.35 µM) | 16 (≈ 21.6 µM) | 2 (≈ 2.7 µM) | 1 (≈ 1.35 µM) | 1 (≈ 1.35 µM) | – | 4 (≈ 5.4 µM) | 4 (≈ 5.4 µM) | – |
| CCC(CC)CNCCCNCCCNCc1ccc(-c2cccc(-c3ccc(CNCCCNCCCNCC(CC)CC)cc3)c2)cc1 [CZ-1-164, N^1,N^1′-([1,1′:3′,1″-terphenyl]-4,4″-diylbis(methylene))bis(N^3-(3-((2-ethylbutyl)amino)propyl)propane-1,3-diamine)] | 16 (≈ 23.4 µM) | 1 (≈ 1.46 µM) | 16 (≈ 23.4 µM) | 1 (≈ 1.46 µM) | – | – | – | – | – | – |
| CCC(C)CNCCCNCCCNCc1ccc(-c2cccc(-c3ccc(CNCCCNCCCNCC(C)CC)cc3)c2)cc1 (stereo not drawn) [CZ-1-166, N^1,N^1′-([1,1′:3′,1″-terphenyl]-4,4″-diylbis(methylene))bis(N^3-(3-((2-methylbutyl)amino)propyl)propane-1,3-diamine)] | 4 (≈ 6.09 µM) | 1 (≈ 1.52 µM) | 8 (≈ 12.2 µM) | 1 (≈ 1.52 µM) | – | – | – | – | – | – |
| CC(C)CCNCCCNCCCNCc1ccc(-c2ccnc(-c3ccc(CNCCCNCCCNCCC(C)C)cc3)n2)cc1 [CZ-1-174, N^1,N^1′-((pyrimidine-2,4-diylbis(4,1-phenylene))bis(methylene))bis(N^3-(3-(isopentylamino)propyl)propane-1,3-diamine)] | 64 (≈ 97.1 µM) | 8 (≈ 12.1 µM) | > 64 | 16 (≈ 24.3 µM) | – | – | – | – | – | – |
| CC(C)CNCCCNCCCNCc1ccc(-c2cc(-c3ccc(CNCCCNCCCNCC(C)C)cc3)ncn2)cc1 [CZ-1-176, N^1,N^1′-((pyrimidine-4,6-diylbis(4,1-phenylene))bis(methylene))bis(N^3-(3-(isobutylamino)propyl)propane-1,3-diamine)] | 64 (≈ 101 µM) | 32 (≈ 50.7 µM) | 64 (≈ 101 µM) | 32 (≈ 50.7 µM) | – | – | – | – | – | – |
| CC(C)CNCCCNCCCNCc1ccc(-c2cc(-c3ccc(CNCCCNCCCNCC(C)C)cc3)cc(C(C)(C)C)c2)cc1 [CZ-1-177, N^1,N^1′-((5′-(tert-butyl)-[1,1′:3′,1″-terphenyl]-4,4″-diyl)bis(methylene))bis(N^3-(3-(isobutylamino)propyl)propane-1,3-diamine)] | 1 (≈ 1.46 µM) | 1 (≈ 1.46 µM) | > 4 | 1 (≈ 1.46 µM) | – | – | 250 | 16 (≈ 23.4 µM) | 8 (≈ 11.7 µM) | 500 |
| CCC(C)CNCCCNCCCNCc1ccc(-c2cc(-c3ccc(CNCCCNCCCNCC(C)CC)cc3)cc(C(C)(C)C)c2)cc1 (stereo not drawn) [CZ-1-178, N^1,N^1′-((5′-(tert-butyl)-[1,1′:3′,1″-terphenyl]-4,4″-diyl)bis(methylene))bis(N^3-(3-((2-methylbutyl)amino)propyl)propane-1,3-diamine)] | 1 (≈ 1.4 µM) | 1 (≈ 1.4 µM) | > 4 | 1 (≈ 1.4 µM) | – | – | <250 | 4 (≈ 5.61 µM) | 2 (≈ 2.8 µM) | 500 |
| CCC(CC)CNCCCNCCCNCc1cccc(-c2cc(-c3cccc(CNCCCNCCCNCC(CC)CC)c3)cc(C(C)(C)C)c2)c1 [CZ-1-183, N^1,N^1′-((5′-(tert-butyl)-[1,1′:3′,1″-terphenyl]-3,3″-diyl)bis(methylene))bis(N^3-(3-((2-ethylbutyl)amino)propyl)propane-1,3-diamine)] | 8 (≈ 10.8 µM) | 0.5 (≈ 0.675 µM) | – | – | – | – | – | – | 16 (≈ 21.6 µM) | – |
| CC(C)CNCCCNCCCNCc1cccc(-c2cc(-c3cccc(CNCCCNCCCNCC(C)C)c3)cc(C(C)(C)C)c2)c1 [CZ-1-184, N^1,N^1′-((5′-(tert-butyl)-[1,1′:3′,1″-terphenyl]-3,3″-diyl)bis(methylene))bis(N^3-(3-(isobutylamino)propyl)propane-1,3-diamine)] | 16 (≈ 23.4 µM) | 0.5 (≈ 0.73 µM) | – | – | – | – | – | – | 64 (≈ 93.4 µM) | – |
